Measured values: patent publication US20210238225A1, “PEPTIDOMIMETIC INHIBITORS OF THE PEPTIDYL-PROLYL CIS/TRANS ISOMERASE (PIN1)” (DANA-FARBER CANCER INSTITUTE, INC., priority 2018, published 2021)
Where two headings read alike, the source gives them in different places. Non-standard residues stand in square brackets, D forms with d. Residues, ends and D or L forms follow the SMILES beside them. *: point of attachment. Phe(F5) = N[C@@H](Cc1c(F)c(F)c(F)c(F)c1F)C(=O)O; Phe(3,5-F2) = N[C@@H](Cc1cc(F)cc(F)c1)C(=O)O; Ala(4-thiazolyl) = N[C@@H](Cc1cscn1)C(=O)O; Phe(2-Br) = N[C@@H](Cc1ccccc1Br)C(=O)O; Phe(4-F) = N[C@@H](Cc1ccc(F)cc1)C(=O)O; Bta = N[C@@H](Cc1csc2ccccc12)C(=O)O; NH(4-Me-benzyl) = Cc1ccc(CN*)cc1; NMeF = CN[C@@H](Cc1ccccc1)C(=O)O; hPhe = N[C@@H](CCc1ccccc1)C(=O)O; 3Thi = N[C@@H](Cc1ccsc1)C(=O)O; Cit = NC(=O)NCCC[C@H](N)C(=O)O; Pip = O=C(O)[C@@H]1CCCCN1; Piperidide = C1CCN(*)CC1; Acryloyl = C=CC(=O)*; NHcBu = C1CC(N*)C1; NHtBu = CC(C)(C)N*; X6 = CC(Cl)C(=O)*; ClAc = O=C(CCl)*

Target: Pin1 (GST-Pin1) (Homo sapiens, UniProt Q13526)
Sequence (Q13526 whole entry): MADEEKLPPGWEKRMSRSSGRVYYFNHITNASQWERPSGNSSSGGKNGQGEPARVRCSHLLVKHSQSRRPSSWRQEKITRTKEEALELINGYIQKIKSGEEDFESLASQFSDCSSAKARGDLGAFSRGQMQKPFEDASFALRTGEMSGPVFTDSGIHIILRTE
Assay: Fluorescence polarization (FP) assay, binding to Pin1
Conditions: competition with fluorescein-labeled peptide probe, 12 hours pre-incubation at 4° C., Kenakin Ki equation

Ki (read-out: Ki, μM (FP Assay)) | SMILES | Ki (Ki, μM (FP Assay))
 | COC(=O)CC[C@H](NC(=O)CCl)C(=O)N1CCCC[C@H]1C(=O)N[C@@H](Cc1csc2ccccc12)C(=O)N[C@@H](CCCNC(N)=O)C(=O)NCc1ccc(C)cc1 [Compound 11-21, Methyl (S)-5-((S)-2-(((S)-3-(benzo[&]thiophen-3-yl)-1-(((S)-1-((4-methylbenzyl)amino)-1-oxo-5-ureidopentan-2-yl)amino)-1-oxopropan-2-yl)carbamoyl)piperidin-1-yl)-4-(2-chloroacetamido)-5-oxopentanoate] (ClAc-E(OMe)[Pip][Bta][Cit]-{NH(4-Me-benzyl)}) | 0.015 µM
 | COC(=O)CC[C@H](NC(=O)CCl)C(=O)N1CCCC[C@H]1C(=O)N[C@@H](Cc1csc2ccccc12)C(=O)N[C@@H](Cc1ccc(F)cc1)C(=O)NCc1ccc(C)cc1 [Compound 11-22, Methyl (S)-5-((S)-2-(((S)-3-(benzo[b]thiophen-3-yl)-1-(((S)-3-(4-fluorophenyl)-1-((4-methylbenzyl)amino)-1-oxopropan-2-yl)amino)-1-oxopropan-2-yl)carbamoyl)piperidin-1-yl)-4-(2-chloroacetamido)-5-oxopentanoate] (ClAc-E(OMe)[Pip][Bta][Phe(4-F)]-{NH(4-Me-benzyl)}) | > 10 µM
 | COC(=O)CC[C@H](NC(=O)CCl)C(=O)N1CCCC[C@H]1C(=O)N[C@@H](Cc1c[nH]c2ccccc12)C(=O)N[C@@H](Cc1cc(F)cc(F)c1)C(=O)NCc1ccc(C)cc1 [Compound 11-24, Methyl (S)-4-(2-chloroacetamido)-5-((S)-2-(((S)-1-(((S)-3-(3,5-difluorophenyl)-1-((4-methyl-benzyl)amino)-1-oxopropan-2-yl)amino)-3-(1H-indol-3-yl)-1-oxopropan-2-yl)carbamoyl)piperidin-1-yl)-5-oxopentanoate] (ClAc-E(OMe)[Pip]W[Phe(3,5-F2)]-{NH(4-Me-benzyl)}) | > 10 µM
 | COC(=O)CC[C@H](NC(=O)CCl)C(=O)N1CCCC[C@H]1C(=O)N[C@@H](Cc1c[nH]c2ccccc12)C(=O)N[C@@H](Cc1c(F)c(F)c(F)c(F)c1F)C(=O)NCc1ccc(C)cc1 [Compound 11-25, Methyl (S)-5-((S)-2-(((S)-3-(1H-indol-3-yl)-1-(((S)-1-((4-methylbenzyl)amino)-1-oxo-3-(perfluoro-phenyl)propan-2-yl)amino)-1-oxopropan-2-yl)carbamoyl)piperidin-1-yl)-4-(2-chloroacetamido)-5-oxopentanoate] (ClAc-E(OMe)[Pip]W[Phe(F5)]-{NH(4-Me-benzyl)}) | > 10 µM
 | COC(=O)CC[C@H](NC(=O)CCl)C(=O)N1CCCC[C@H]1C(=O)N[C@@H](Cc1c[nH]c2ccccc12)C(=O)N[C@@H](Cc1ccccc1Br)C(=O)NCc1ccc(C)cc1 [Compound 11-27, Methyl (S)-5-((S)-2-(((S)-1-(((S)-3-(2-bromophenyl)-1-((4-methylbenzyl)amino)-1-oxopropan-2-yl)amino)-3-(1H-indol-3-yl)-1-oxopropan-2-yl)carbamoyl)piperidin-1-yl)-4-(2-chloroacetamido)-5-oxopentanoate] (ClAc-E(OMe)[Pip]W[Phe(2-Br)]-{NH(4-Me-benzyl)}) | > 10 µM
 | COC(=O)CC[C@H](NC(=O)CCl)C(=O)N1CCCC[C@H]1C(=O)N[C@@H](Cc1c[nH]c2ccccc12)C(=O)N[C@@H](Cc1ccsc1)C(=O)NCc1ccc(C)cc1 [Compound 11-29, Methyl (S)-5-((S)-2-(((S)-3-(1H-indol-3-yl)-1-(((S)-1-((4-methylbenzyl)amino)-1-oxo-3-(thiophen-3-yl)propan-2-yl)amino)-1-oxopropan-2-yl)carbamoyl)piperidin-1-yl)-4-(2-chloroacetamido)-5-oxopentanoate] (ClAc-E(OMe)[Pip]W[3Thi]-{NH(4-Me-benzyl)}) | 1.01 µM
> 10 µM | COC(=O)CC[C@H](NC(C)=O)C(=O)N1CCCC[C@H]1C(=O)N[C@@H](Cc1c[nH]c2ccccc12)C(=O)N[C@@H](Cc1ccc(F)cc1)C(=O)NCc1ccc(C)cc1 [Compound 11-30, Methyl (S)-4-acetamido-5-((S)-2-(((S)-1-(((S)-3-(4-fluorophenyl)-1-((4-methylbenzyl)-amino)-1-oxopropan-2-yl)amino)-3-(1H-indol-3-yl)-1-oxopropan-2-yl)carbamoyl)piperidin-1-yl)-5-oxopentanoate] (Ac-E(OMe)[Pip]W[Phe(4-F)]-{NH(4-Me-benzyl)}) | 
0.028 µM | Cc1ccc(CNC(=O)[C@H](CCCNC(N)=O)NC(=O)[C@H](Cc2csc3ccccc23)NC(=O)[C@@H]2CCCCN2C(=O)[C@H](Cc2ccccc2)NC(=O)CCl)cc1 [Compound 11-33, (S)—N—((S)-3-(benzo[6]thiophen-3-yl)-1-(((S)-1-((4-methylbenzyl)amino)-1-oxo-5-ureidopentan-2-yl)amino)-1-oxopropan-2-yl)-1-((2-chloroacetyl)-L-phenylalanyl)-piperidine-2-carboxamide] (ClAc-F[Pip][Bta][Cit]-{NH(4-Me-benzyl)}) | 
> 10 µM | C=CC(=O)N[C@@H](Cc1ccccc1)C(=O)N1CCCC[C@H]1C(=O)N[C@@H](Cc1c[nH]c2ccccc12)C(=O)N[C@@H](CCCNC(N)=O)C(=O)NCc1ccc(C)cc1 [Compound 11-35, (S)—N—((S)-3-(1H-indol-3-yl)-1-(((S)-1-((4-methylbenzyl)amino)-1-oxo-5-ureidopentan-2-yl)amino)-1-oxopropan-2-yl)-1-(acryloyl-L-phenylalanyl)piperidine-2-carboxamide] (Acryloyl-F[Pip]W[Cit]-{NH(4-Me-benzyl)}) | 
> 10 µM | CC(=O)N[C@@H](Cc1ccccc1)C(=O)N1CCCC[C@H]1C(=O)N[C@@H](Cc1c[nH]c2ccccc12)C(=O)N[C@@H](CCCNC(N)=O)C(=O)NCc1ccc(C)cc1 [Compound 11-36, (S)—N—((S)-3-(1H-Indol-3-yl)-1-(((S)-1-((4-methylbenzyl)amino)-1-oxo-5-ureidopentan-2-yl)amino)-1-oxopropan-2-yl)-1-(acetyl-L-phenylalanyl)piperidine-2-carboxamide] (Ac-F[Pip]W[Cit]-{NH(4-Me-benzyl)}) | 
0.026 µM | NC(=O)NCCC[C@H](NC(=O)[C@H](Cc1c[nH]c2ccccc12)NC(=O)[C@@H]1CCCCN1C(=O)[C@H](Cc1ccccc1)NC(=O)CCl)C(=O)NC1CCC1 [Compound 11-37, (S)-1-((2-Chloroacetyl)-L-phenylalanyl)-N—((S)-1-(((S)-1-(cyclobutylamino)-1-oxo-5-ureidopentan-2-yl)amino)-3-(1H-indol-3-yl)-1-oxopropan-2-yl)piperidine-2-carboxamide] (ClAc-F[Pip]W[Cit]-NHcBu) | 
 | NC(=O)NCCC[C@H](NC(=O)[C@H](Cc1c[nH]c2ccccc12)NC(=O)[C@@H]1CCCCN1C(=O)[C@H](CCc1ccccc1)NC(=O)CCl)C(=O)N1CCCCC1 [Compound 11-40, (S)—N—((S)-3-(1H-Indol-3-yl)-1-oxo-1-(((S)-1-oxo-1-(piperidin-1-yl)-5-ureidopentan-2-yl)amino)propan-2-yl)-1-((S)-2-(2-chloroacetamido)-4-phenylbutanoyl)piperidine-2-carboxamide] (ClAc-[hPhe][Pip]W[Cit]-Piperidide) | 0.087 µM
0.109 µM | CN(C(=O)CCl)[C@@H](Cc1ccccc1)C(=O)N1CCCC[C@H]1C(=O)N[C@@H](Cc1csc2ccccc12)C(=O)N[C@@H](CCCNC(N)=O)C(=O)N1CCCCC1 [Compound 11-42, (S)—N—((S)-3-(Benzo[6]thiophen-3-yl)-1-oxo-1-(((S)-1-oxo-1-(piperidin-1-yl)-5-ureidopentan-2-yl)amino)propan-2-yl)-1-(N-(2-chloroacetyl)-N-methyl-L-phenylalanyl)piperidine-2-carboxamide] (ClAc-[NMeF][Pip][Bta][Cit]-Piperidide) | 

SMILES | Ki (read-out: Ki, μM (FP Assay)) | Ki (Ki, μM (FP Assay))
CC(C)(C)NC(=O)[C@H](CCCNC(N)=O)NC(=O)[C@H](Cc1c[nH]c2ccccc12)NC(=O)[C@@H]1CCCCN1C(=O)[C@H](Cc1ccccc1)NC(=O)CCl [Compound 11-31, (S)—N—((S)-1-(((S)-1-(tert-Butylamino)-1-oxo-5-ureidopentan-2-yl)amino)-3-(1H-indol-3-yl)-1-oxopropan-2-yl)-1-((2-chloroacetyl)-L-phenylalanyl)piperidine-2-carboxamide] (ClAc-F[Pip]W[Cit]-NHtBu) | 0.023 µM | 
Cc1ccc(CNC(=O)[C@H](Cc2cscn2)NC(=O)[C@H](Cc2c[nH]c3ccccc23)NC(=O)[C@@H]2CCCCN2C(=O)[C@H](Cc2ccccc2)NC(=O)CCl)cc1 [Compound 11-32, (S)—N—((S)-3-(1H-Indol-3-yl)-1-(((S)-1-((4-methylbenzyl)amino)-1-oxo-3-(thiazol-4-yl)propan-2-yl)amino)-1-oxopropan-2-yl)-1-((2-chloroacetyl)-L-phenylalanyl)piperidine-2-carboxamide] (ClAc-F[Pip]W[Ala(4-thiazolyl)]-{NH(4-Me-benzyl)}) | 0.121 µM | 
Cc1ccc(CNC(=O)[C@H](CCCNC(N)=O)NC(=O)[C@H](Cc2c[nH]c3ccccc23)NC(=O)[C@@H]2CCCCN2C(=O)[C@H](Cc2ccccc2)NC(=O)C(C)Cl)cc1 (stereo partly drawn) [Compound 11-34, (2S)—N—((S)-3-(1H-indol-3-yl)-1-(((S)-1-((4-methylbenzyl)amino)-1-oxo-5-ureidopentan-2-yl)amino)-1-oxopropan-2-yl)-1-((2-chloropropanoyl)-L-phenylalanyl)piperidine-2-carboxamide] (X6-F[Pip]W[Cit]-{NH(4-Me-benzyl)}) | > 10 µM | 
O=C(CCl)N[C@@H](Cc1ccccc1)C(=O)N1CCCC[C@H]1C(=O)N[C@@H](Cc1c[nH]c2ccccc12)C(=O)N[C@@H](Cc1ccccc1)C(=O)N1CCCCC1 [Compound 11-41, (S)—N—((S)-3-(1H-Indol-3-yl)-1-oxo-1-(((S)-1-oxo-3-phenyl-1-(piperidin-1-yl)propan-2-yl)amino)propan-2-yl)-1-((2-chloroacetyl)-L-phenylalanyl)piperidine-2-carboxamide] (ClAc-F[Pip]WF-Piperidide) | 0.151 µM | 
